Tested on: antibody 2D12.5
Assay: competitive immunoassay (ELISA) of metal-DOTA complexes against immobilized Y-DOTA
Format: binding, murine
Conditions: 37° C.; DOTA analog [S]-2-(p-nitrobenzyl)-DOTA
Source text: FIG. 13 is graphical display showing the relative binding of metal-DOTA complexes to antibody 2D12.5. A representative set of competitive binding curves obtained from ELISA experiments described in Example 3 below. Error bars (representing the standard error of the mean) are shown, but are generally smaller than the data points.
Elements plotted in the order Sc (open circle), Lu, Yb, Tm, Er, Ho, Y (open diamond), Dy, Tb, Gd, Eu, Sm, Nd, Pr, Ce, La. ΔΔG values relative to Y-DOTA, set at 0. Error bars represent standard error of the mean.
To determine the metal selectivity of the antibody 2D12.5, a competitive immunoassays was used to measure the binding constants of multiple metal-DOTA complexes relative to Y^3+-DOTA.
We examined the monoclonal antibody 2D12.5, initially developed to bind specifically to Y-DOTA for targeted radiotherapy (see, e.g., Goodwin et al., i Cancer Res. 54: 5937-5946 (1994)), in order to determine the scope of its activity. To assess the metal selectivity of antibody 2D12.5, a competitive immunoassay to measure the binding constants of various metal-DOTA complexes relative to the original Y^3+ complex was developed (FIG. 12). Briefly, 2D12.5 was incubated at 37° C. in the presence of immobilized Y-DOTA and a soluble metal-DOTA competitor. […] Binding was measured by standard methods known to those of skill in the art. […]

## O=C([O-])CN1CCN(CC(=O)[O-])CCN(CC(=O)[O-])C(Cc2ccc([N+](=O)[O-])cc2)CN(CC(=O)[O-])CC1.[Tb+3] (stereo not shown) [Tb-DOTA]
  binding strength relative to the original Y^3+ complex (in words): strongest binders
